One assay concerns E. coli csrA::kanB. Nature of the assay: microbe, parasite or virus in culture. On the set-up: species or system E. coli MG1655 csrA::kanB. The following applies: Escherichia coli, read-out: csrA::kanB [Ara] = 0 mg/L.
Assay [1] concerns E. coli csrA::kanB pBAD-nahKm. Kind of assay: microbe, parasite or virus in culture. On the set-up: species or system E. coli MG1655 csrA::kanB. The following applies: Escherichia coli, read-out: pBAD-nahKm [Ara] = 50 mg/L.
Assay [2] concerns E. coli csrA::kanB pBAD-nahK. Kind of assay: microbe, parasite or virus in culture. The following applies: Escherichia coli, read-out: pBAD-nahK [Ara] = 0 mg/L. On the set-up: species or system E. coli MG1655 csrA::kanB.
Assay [3] concerns E. coli csrA::kanB pBAD-nahK. Nature of the assay: microbe, parasite or virus in culture. On the set-up: species or system E. coli MG1655 csrA::kanB. The following applies: Escherichia coli, read-out: pBAD-nahK [Ara] = 50 mg/L.
Assay [4] addresses T1, PgaCDm (PgaC V227L PgaD N75D/K76E) (Escherichia coli, UniProt P75905, V227L).
T1 sequence (P75905 1-441 V227L): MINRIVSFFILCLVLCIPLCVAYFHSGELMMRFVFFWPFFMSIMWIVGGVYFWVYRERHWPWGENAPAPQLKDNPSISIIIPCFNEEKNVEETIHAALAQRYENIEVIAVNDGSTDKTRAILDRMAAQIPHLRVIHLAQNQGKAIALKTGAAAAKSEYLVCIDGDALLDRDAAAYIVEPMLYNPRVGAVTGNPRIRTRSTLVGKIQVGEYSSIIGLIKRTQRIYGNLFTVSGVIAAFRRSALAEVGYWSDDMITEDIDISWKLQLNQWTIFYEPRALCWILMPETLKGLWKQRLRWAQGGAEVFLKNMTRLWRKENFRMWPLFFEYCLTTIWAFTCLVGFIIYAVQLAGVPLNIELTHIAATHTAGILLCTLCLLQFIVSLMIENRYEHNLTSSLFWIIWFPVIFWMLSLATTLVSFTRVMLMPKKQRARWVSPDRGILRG
T1 sequence (P69432 1-137 N75D/K76E partner): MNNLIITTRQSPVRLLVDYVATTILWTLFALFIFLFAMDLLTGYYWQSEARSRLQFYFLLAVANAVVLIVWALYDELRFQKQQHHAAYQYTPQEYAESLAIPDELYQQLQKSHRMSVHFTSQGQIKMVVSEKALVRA
Nature of the assay: WGA-HRP dot blot of PNAG, densitometry. Format: biochemical.

Assay [5] has as its system E. coli csrA::kanB pBAD-nahK. Nature of the assay: microbe, parasite or virus in culture. On the set-up: species or system E. coli MG1655 csrA::kanB. The following applies: Escherichia coli, read-out: pBAD-nahK [Ara] = 50 mg/L, DTT.

Read-outs that look alike come from different tables or passages of the source.

Turning to `CC(=O)N[C@H]1C(O)O[C@H](C)[C@@H](O)[C@@H]1O` (mixture of isomers) [1-H, 6-deoxyGlcNAc], the IC50 with E. coli csrA::kanB stood at 530 ± 30 µM; in assay [1] it was 500 ± 100 µM; in assay [2] it was 330 ± 10 µM; in assay [3], 8 ± 2 µM.

For the molecule `CC(=O)NC1C(O)OC(CN=[N+]=[N-])C(O)C1O` (centres unmarked) [1-N3, 6-azidoGlcNAc], the values for the IC50 in assay [1], in assay [2] and in assay [3] were over 5000 µM, over 5000 µM and 2700 ± 400 µM, respectively.

Take `CC(=O)N[C@H]1[C@@H](OP(=O)(O)OP(=O)(O)OC[C@H]2O[C@@H](n3ccc(=O)[nH]c3=O)[C@H](O)[C@@H]2O)O[C@H](C)[C@@H](O)[C@@H]1O` [2-H, UDP-6-deoxyGlcNAc]: the IC50 in assay [4] came out at 30 µM.

In assay [4], `CC(=O)N[C@H]1[C@@H](OP(=O)(O)OP(=O)(O)OC[C@H]2O[C@@H](n3ccc(=O)[nH]c3=O)[C@H](O)[C@@H]2O)O[C@H](CN=[N+]=[N-])[C@@H](O)[C@@H]1O` [2-N3, 6-azido analogue] gave an IC50 of over 10000 µM.

Consider `CC(=O)NC1C(O)OC(CN)C(O)C1O` (centres unmarked) [1-NH2, 6-aminoGlcNAc], for which the results for the IC50 in assay [1], in assay [2] and in assay [3] were over 2000 µM, over 2000 µM and 150 ± 60 µM, respectively.

Regarding `CC(=O)N[C@H]1[C@@H](OP(=O)(O)OP(=O)(O)OC[C@H]2O[C@@H](n3ccc(=O)[nH]c3=O)[C@H](O)[C@@H]2O)O[C@H](CN)[C@@H](O)[C@@H]1O` [2-NH2, 6-amino derivative], in assay [4], the IC50 worked out at 480 ± 60 µM.

As for `CC(=O)NC1C(O)OC(CS)C(O)C1O` (centres unmarked) [1-SH, 6-thioGlcNAc], the IC50 in assay [1] was over 2000 µM; in assay [2], over 2000 µM; in assay [3] it was 130 µM; in assay [5], 64 ± 2 µM.

As for `CC(=O)N[C@H]1C(O)O[C@H](CF)[C@@H](O)[C@@H]1O` (mixture of isomers) [1-F, 6-fluoroGlcNAc], the values for the IC50 in assay [1], in assay [2] and in assay [3] were over 2000 µM, over 2000 µM and 13 ± 3 µM, respectively.

With `O=c1ccn([C@@H]2O[C@H](COP(=O)(O)OP(=O)(O)O)[C@@H](O)[C@H]2O)c(=O)[nH]1` [UDP], the IC50 in assay [4] was 2700 ± 900 µM.

Molecule `CC(=O)N[C@H]1[C@@H](OP(=O)(O)OP(=O)(O)OC[C@H]2O[C@@H](n3ccc(=O)[nH]c3=O)[C@H](O)[C@@H]2O)O[C@H](CF)[C@@H](O)[C@@H]1O` [2-F, UDP-6-fluoroGlcNAc] gave an IC50 in assay [4] of 150 ± 10 µM.

In the case of `CC(=O)N[C@H]1[C@@H](OP(=O)(O)OP(=O)(O)OC[C@H]2O[C@@H](n3ccc(=O)[nH]c3=O)[C@H](O)[C@@H]2O)O[C@H](CS)[C@@H](O)[C@@H]1O` [2-SH, UDP-6-thioGlcNAc], the IC50 in assay [4] was found to be 60 ± 20 µM.

Source of the values: publication doi:10.1101/2021.10.13.464265v1 (biorxiv, 2021).
